According to patent US10583137B2, “Triazole DAGLα inhibitors” (THE SCRIPPS RESEARCH INSTITUTE, priority 2015, dated 2020):

Assays:
recombinant human DAGLα = recombinant human DAGLα (Homo sapiens (Human), UniProt Q9Y4D2); experiment: SAG substrate assay (in vitro inhibition of 2-AG biosynthesis), membrane lysates from HEK293T cells; type: biochemical; details: any dose tested
Method: DAGL modulators were tested for in vitro inhibition of 2-AG biosynthesis using a 1-stearoyl-2-arachidonoyl-sn-glycerol (SAG) substrate assay in DAGL-transfected HEK293 cells.
The SAG substrate assay, as described in Journal of lipid research 56(4):927-935, was performed using the following assay conditions: 0.2 U/mL glycerol kinase (GK), glycerol-3-phosphate oxidase (GPO) and horseradish peroxidase (HRP), 0.125 mM ATP, 10 μM Amplifu™Red, 5% DMSO in a total volume of 200 μL. The assay additionally contained SAG, a DAGL modulator, and membrane lysates from HEK293T cells expressing recombinant human DAGLα or DAGLβ.
Membranes were prepared from HEK293T cells transiently transfected with DAGLα or DAGLβ plasmids encoding for full length DAGLα or DAGLβ, respectively (Angewandte Chemie 52(46):12081-12085; Journal of Medicinal Chemistry 57(15):6610-6622). Briefly, one day prior to transfection, 10^7 cells were seeded in a 15 cm petri dish. The seeded cells were transfected by the addition of a 3:1 mixture of polyethyleneimine (60 μg) and plasmid DNA (20 μg) in 2 mL serum free medium. The medium was refreshed after 24 hr, and after 72 hr the cells were harvested by suspending them in 20 mL medium. The suspension was centrifuged for 10 min at 1000 rpm, and the supernatant was removed. The cell pellet was stored at −80° C. until use. Cell pellets were thawed on ice and suspended in lysis buffer A (20 mM HEPES, 2 mM DTT, 0.25 M sucrose, 1 mM MgCl2, lx protease inhibitor cocktail (Roche cOmplete EDTA free), 25 U/μL Benzonase). The suspension was homogenized by polytrone (3×7 sec) and incubated for 30 min on ice. The suspension was subjected to ultracentrifugation (100,000×g, 30 min, 4° C., Beckman Coulter, Type Ti70 rotor) to yield the cytosolic fraction in the supernatant and the membrane fraction as a pellet. The pellet was resuspended in lysis buffer B (20 mM HEPES, 2 mM DTT, lx protease inhibitor cocktail (Roche cOmplete EDTA free)) and the protein concentration determined with Quick Start Bradford assay (Biorad). The protein fractions were diluted to a total protein concentration of 1 mg/mL and stored in small aliquots at −80° C. until use.

DAGLα (hDAGLα-FLAG) = DAGLα (hDAGLα-FLAG) (Homo sapiens (Human), UniProt Q9Y4D2); experiment: competitive ABPP, membrane proteome of transfected HEK293T cells; type: biochemical; details: for IC50: read-out: DAGLα IC50
DAGLα (hDAGLα-FLAG), sequence (Q9Y4D2 whole entry): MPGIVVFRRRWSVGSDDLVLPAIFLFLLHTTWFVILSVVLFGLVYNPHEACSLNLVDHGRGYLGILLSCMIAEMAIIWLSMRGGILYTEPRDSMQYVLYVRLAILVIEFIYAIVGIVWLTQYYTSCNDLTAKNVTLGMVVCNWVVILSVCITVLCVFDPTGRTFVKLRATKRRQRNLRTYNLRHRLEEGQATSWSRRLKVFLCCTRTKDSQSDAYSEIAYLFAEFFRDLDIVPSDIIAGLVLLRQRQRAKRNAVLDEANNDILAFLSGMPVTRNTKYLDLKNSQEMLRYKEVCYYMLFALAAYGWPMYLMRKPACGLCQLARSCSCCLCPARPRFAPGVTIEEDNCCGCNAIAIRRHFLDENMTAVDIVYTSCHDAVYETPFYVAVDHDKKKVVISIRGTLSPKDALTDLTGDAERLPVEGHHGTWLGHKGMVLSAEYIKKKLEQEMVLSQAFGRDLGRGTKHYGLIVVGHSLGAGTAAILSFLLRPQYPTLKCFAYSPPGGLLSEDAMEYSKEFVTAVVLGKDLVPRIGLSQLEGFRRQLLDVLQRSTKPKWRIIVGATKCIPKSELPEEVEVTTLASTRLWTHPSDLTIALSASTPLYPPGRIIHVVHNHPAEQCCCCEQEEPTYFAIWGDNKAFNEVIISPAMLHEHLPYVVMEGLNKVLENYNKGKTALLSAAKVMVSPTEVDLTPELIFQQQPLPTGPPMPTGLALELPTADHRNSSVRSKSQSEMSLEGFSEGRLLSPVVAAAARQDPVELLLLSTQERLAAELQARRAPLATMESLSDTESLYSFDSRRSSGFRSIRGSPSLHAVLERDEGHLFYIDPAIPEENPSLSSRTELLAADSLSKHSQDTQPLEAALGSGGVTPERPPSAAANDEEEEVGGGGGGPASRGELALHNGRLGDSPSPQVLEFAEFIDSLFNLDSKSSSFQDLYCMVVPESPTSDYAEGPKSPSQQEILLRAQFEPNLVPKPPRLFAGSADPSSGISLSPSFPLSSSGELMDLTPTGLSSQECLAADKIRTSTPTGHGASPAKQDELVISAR
How it was run: (§1)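 HEK293T membrane proteome (1 mg/ml) expressing FLAG-tagged human DAGLα or DAGLβ, treated 30 min at room temperature with compound, then 30 min with HT-01 or FP-Rh probe (1 μM). Bands separated by SDS-PAGE were normalized to DMSO for IC50 by variable-slope fit.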

DAGLβ (hDAGLβ-FLAG) = DAGLβ (hDAGLβ-FLAG) (Homo sapiens (Human), UniProt Q8NCG7); experiment: as above; type: biochemical; details: for IC50: read-out: DAGLβ IC50
DAGLβ (hDAGLβ-FLAG), sequence (Q8NCG7 whole entry): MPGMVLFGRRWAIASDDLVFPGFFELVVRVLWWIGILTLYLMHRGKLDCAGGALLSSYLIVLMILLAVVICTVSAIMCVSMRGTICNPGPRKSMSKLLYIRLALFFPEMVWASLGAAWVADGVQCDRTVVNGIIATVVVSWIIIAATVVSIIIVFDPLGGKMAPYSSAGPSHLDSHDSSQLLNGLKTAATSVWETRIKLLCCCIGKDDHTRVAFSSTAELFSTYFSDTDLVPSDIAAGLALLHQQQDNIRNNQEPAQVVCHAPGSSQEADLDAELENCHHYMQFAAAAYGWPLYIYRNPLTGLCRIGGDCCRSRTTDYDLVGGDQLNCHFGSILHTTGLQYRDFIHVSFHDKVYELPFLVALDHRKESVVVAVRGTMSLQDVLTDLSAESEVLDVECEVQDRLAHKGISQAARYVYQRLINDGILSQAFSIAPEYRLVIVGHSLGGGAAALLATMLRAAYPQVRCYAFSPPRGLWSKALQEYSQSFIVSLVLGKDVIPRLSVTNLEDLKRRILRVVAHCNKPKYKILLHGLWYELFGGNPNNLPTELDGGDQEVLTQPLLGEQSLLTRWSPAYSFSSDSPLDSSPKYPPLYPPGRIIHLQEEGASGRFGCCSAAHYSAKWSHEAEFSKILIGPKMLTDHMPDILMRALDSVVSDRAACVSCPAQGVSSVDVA
How it was run: as §1

[1] = system: brain 2-AG and other DAGL-regulated lipids; experiment: brain lipid profiles of treated mice by LC-MS; type: in vivo, mouse; details: 50 mg/kg i.p., 4 hr post-dosing
Method: Brain lipid profiles of mice treated with compounds 14, 17 and control compound 22.
Mice were treated with 50 mg/kg compound (i.p.), followed by lipid profiling using LC-MS at a 4 hr post-dosing. […] This depletion of brain 2-AG in compound 14 and 17-treated mice was dose-dependent (data not shown) and was observed within 2 h after injection. […] The changes in each lipid species were dose-dependent and were absent in compound 22 treated mice (FIGS. 6C, E, G, I, and K).

[2] = system: DSE at parallel fiber to Purkinje cell synapses; experiment: depolarization-induced suppression of excitation (DSE) in acute cerebellar slices; details: 10 μM
Source text: Various forms of synaptic plasticity are regulated by 2-AG signaling, included depolarization-induced suppression of excitation (DSE) and inhibition (DSI). DSE was examined at parallel fiber (PF) to Purkinje cell (PC) synapses in acute cerebellar slices. A brief depolarization of PCs induced robust transient DSE at PF-PC synapses in vehicle treated cerebellar slices (FIG. 7A).

[3] = system: DSI at CA1 pyramidal neuron synapses; experiment: depolarization-induced suppression of inhibition (DSI) in hippocampal slices; details: 10 μM, bath application 30 min
Method: DSI was evaluated at CA1 pyramidal neuron synapses in hippocampal slices. DSI was induced in vehicle-treated hippocampal slices by applying a brief depolarization while evoking […] through stimulation of synaptic inhibitory inputs (FIG. 7C). Bath application of compound 14 (10 μM) and compound 17 (1 μM), but not compound 22 (10 μM), for 30 min before starting electrophysiological recordings blocked hippocampal DSI (FIGS. 7C and D).

[4] = system: LPS-induced neuroinflammatory responses (brain lipids, cytokines, body temperature); experiment: LPS-induced neuroinflammatory responses in mouse brain; type: in vivo; details: mice
Method: The effects of pharmacological and genetic inactivation of DAGL activity on neuroinflammatory responses (brain prostaglandin and cytokine production) induced by high-dose lipopolysaccharide treatment was examined.
Mice were treated with compounds 14, 17, control compound 22 or vehicle (50 mg/kg, i.p) for 60-90 min, followed by LPS (20 mg/kg, i.p., 6 hr) or vehicle. The mice were subsequently sacrificed and their brain lipid and cytokine profiles analyzed. […] The LPS-induced elevations in both 2-AG and PGE2 were suppressed in compound 14 and compound 17 treated mice and DAGLα/mice, but not compound 22 treated mice. […] LPS-induced anapyrexia was blunted in compound 14 and 17 treated mice (FIG. 8E) and DAGLα−/− mice (FIG. 8F), but not compound 22 treated mice (FIG. 8E).

[5] = 50 mg/kg i.p. 60-90 min before LPS 20 mg/kg i.p., 6 hr

recombinant human DAGLα, sequence (Q9Y4D2 whole entry): as the sequence (Q9Y4D2 whole entry) above

SMILES	IC50 (DAGLα (hDAGLα-FLAG)) [nM]	IC50 (DAGLβ (hDAGLβ-FLAG)) [nM]	other results
CC(C)(C)OC(=O)N1CCN(C(=O)n2cc(-c3ccc(OC(F)(F)F)cc3)nn2)C(c2ccccc2)C1 (stereo not drawn) [Compound 22, tert-butyl 3-phenyl-4-(4-(4-(trifluoromethoxy)phenyl)-1H-1,2,3-triazole-1-carbonyl)piperazine-1-carboxylate]			inhibition of DAGLα (recombinant human DAGLα): did not substantially inhibit; inhibition at 0.8 µM (DAGLα (hDAGLα-FLAG); 0.8 μM (stated under the cell), read-out: DAGLα % inh. 0.8 μM): 0 to 25%; inhibition at 0.8 µM (DAGLβ (hDAGLβ-FLAG); 0.8 μM (stated under the cell), read-out: DAGLβ % inh. 0.8 μM): 0 to 25%; brain 2-AG levels [1]: not; brain AA [1]: absent; brain AEA [1]: absent; brain C18:1/C20:4 DAG [1]: absent; brain PGD2 [1]: absent; brain PGE2 [1]: absent; brain SAG [1]: absent; effect on cerebellar DSE [2]: did not alter; effect on hippocampal DSI [3]: not; LPS-induced elevation in brain 2-AG [4, 5]: not; LPS-induced elevation in brain PGE2 [4, 5]: not; LPS-induced anapyrexia ([4]; 50 mg/kg i.p. before LPS): not; brain AA under basal control conditions ([4]; 50 mg/kg i.p., no LPS): not; brain PGE2 under basal control conditions ([4]; 50 mg/kg i.p., no LPS): not
CC(C)(C)CN(CCc1ccccc1)C(=O)n1ncc(-c2ccc(OC(F)(F)F)cc2)n1 [Compound 127, N-neopentyl-N-phenethyl-4-(4-(trifluoromethoxy)phenyl)-2H-1,2,3-triazole-2-carboxamide]	2000 to 10000	≤ 400	
O=C(N(CCc1ccccc1)C1CCC1)n1ncc(-c2ccc(OC(F)(F)F)cc2)n1 [Compound 128, N-cyclobutyl-N-phenethyl-4-(4-(trifluoromethoxy)phenyl)-2H-1,2,3-triazole-2-carboxamide]	2000 to 10000	400 to 2000	
O=C(N(CCc1ccccc1)C1CC1)n1ncc(-c2ccc(OC(F)(F)F)cc2)n1 [Compound 129, N-cyclopropyl-N-phenethyl-4-(4-(trifluoromethoxy)phenyl)-2H-1,2,3-triazole-2-carboxamide]	2000 to 10000	400 to 2000	
O=C(N(CCc1ccccc1)CC1CC1)n1cc(-c2ccc(OC(F)(F)F)cc2)nn1 [Compound 130, N-(cyclopropylmethyl)-N-phenethyl-4-(4-(trifluoromethoxy)phenyl)-1H-1,2,3-triazole-1-carboxamide]	≤ 400	≤ 400	
O=C(N(CCc1ccccc1)CC1CC1)n1ncc(-c2ccc(OC(F)(F)F)cc2)n1 [Compound 131, N-(cyclopropylmethyl)-N-phenethyl-4-(4-(trifluoromethoxy)phenyl)-2H-1,2,3-triazole-1-carboxamide]	2000 to 10000	400 to 2000	
CC(C)(C)CN(CCc1ccncc1)C(=O)n1cc(-c2ccc(OC(F)(F)F)cc2)nn1 [Compound 132, N-neopentyl-N-(2-(pyridin-4-yl)ethyl)-4-(4-(trifluoromethoxy)phenyl)-1H-1,2,3-triazole-1-carboxamide]	≤ 400	≤ 400	
CC(C)(C)CN(CCc1ccncc1)C(=O)n1ncc(-c2ccc(OC(F)(F)F)cc2)n1 [Compound 133, N-neopentyl-N-(2-(pyridin-4-yl)ethyl)-4-(4-(trifluoromethoxy)phenyl)-2H-1,2,3-triazole-1-carboxamide]	2000 to 10000	400 to 2000	
CC(C)(C)CN(CCc1cccnc1)C(=O)n1cc(-c2ccc(OC(F)(F)F)cc2)nn1 [Compound 134, N-neopentyl-N-(2-(pyridin-3-yl)ethyl)-4-(4-(trifluoromethoxy)phenyl)-1H-1,2,3-triazole-1-carboxamide]	≤ 400	≤ 400	
CC(C)(C)CN(CCc1cccnc1)C(=O)n1ncc(-c2ccc(OC(F)(F)F)cc2)n1 [Compound 135, N-neopentyl-N-(2-(pyridin-3-yl)ethyl)-4-(4-(trifluoromethoxy)phenyl)-2H-1,2,3-triazole-1-carboxamide]	400 to 2000	2000 to 10000	
CCC(CC)CN(CCc1cccnc1)C(=O)n1cc(-c2ccc(OC(F)(F)F)cc2)nn1 [Compound 136, N-(2-ethylbutyl)-N-(2-(pyridin-3-yl)ethyl)-4-(4-(trifluoromethoxy)phenyl)-1H-1,2,3-triazole-1-carboxamide]	≤ 400	≤ 400	
CCC(CC)CN(CCc1cccnc1)C(=O)n1ncc(-c2ccc(OC(F)(F)F)cc2)n1 [Compound 137]	400 to 2000	400 to 2000	
